Assay results: ChEMBL document CHEMBL1134304, “Discovery of novel p-arylthio cinnamides as antagonists of leukocyte function-associated antigen-1/intercellular adhesion molecule-1 interaction. 4. Structure-activity relationship of substituents on the benzene ring of the cinnamide” (J Med Chem, 2001)

How the values were obtained:
Integrin alpha-L [1] = target: T1, Integrin alpha-L (Homo sapiens, UniProt P20701); experiment: Inhibition of intercellular adhesion molecule-1 (ICAM-1) binding to recombinant LFA-1, range (3700-3800)
T1 sequence (P20701 whole entry): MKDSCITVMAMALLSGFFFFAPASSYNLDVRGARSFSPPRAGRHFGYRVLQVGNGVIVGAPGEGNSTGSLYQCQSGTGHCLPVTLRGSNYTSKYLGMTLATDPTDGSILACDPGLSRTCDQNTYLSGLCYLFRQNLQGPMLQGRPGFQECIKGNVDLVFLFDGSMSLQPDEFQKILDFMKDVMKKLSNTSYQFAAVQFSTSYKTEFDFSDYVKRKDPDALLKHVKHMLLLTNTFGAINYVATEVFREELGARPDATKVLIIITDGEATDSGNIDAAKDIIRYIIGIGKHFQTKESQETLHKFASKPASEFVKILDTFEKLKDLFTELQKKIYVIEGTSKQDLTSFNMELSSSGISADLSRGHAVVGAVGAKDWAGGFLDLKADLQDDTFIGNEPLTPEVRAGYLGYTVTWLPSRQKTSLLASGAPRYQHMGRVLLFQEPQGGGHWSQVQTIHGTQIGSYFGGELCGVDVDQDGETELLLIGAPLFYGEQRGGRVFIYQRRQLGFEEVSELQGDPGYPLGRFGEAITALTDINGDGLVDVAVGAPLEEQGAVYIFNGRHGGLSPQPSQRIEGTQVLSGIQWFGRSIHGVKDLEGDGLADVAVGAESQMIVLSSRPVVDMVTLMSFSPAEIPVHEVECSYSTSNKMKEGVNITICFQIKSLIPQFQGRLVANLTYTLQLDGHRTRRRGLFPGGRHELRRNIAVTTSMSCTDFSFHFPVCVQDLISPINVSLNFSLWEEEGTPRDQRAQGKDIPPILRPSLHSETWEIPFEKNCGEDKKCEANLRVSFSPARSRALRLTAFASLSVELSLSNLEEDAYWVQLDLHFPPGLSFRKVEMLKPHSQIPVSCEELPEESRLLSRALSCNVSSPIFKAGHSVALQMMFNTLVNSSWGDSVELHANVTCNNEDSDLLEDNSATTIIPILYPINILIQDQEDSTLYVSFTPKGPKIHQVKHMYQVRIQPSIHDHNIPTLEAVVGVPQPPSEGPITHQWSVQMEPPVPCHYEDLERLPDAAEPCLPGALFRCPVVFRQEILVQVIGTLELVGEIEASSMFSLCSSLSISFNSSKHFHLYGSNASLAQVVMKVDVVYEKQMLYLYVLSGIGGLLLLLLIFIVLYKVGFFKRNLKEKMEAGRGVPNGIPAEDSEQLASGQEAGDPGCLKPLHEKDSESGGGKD

Integrin alpha-L [2] = target: T1, Integrin alpha-L; experiment: Inhibition of intercellular adhesion molecule-1 (ICAM-1) binding to recombinant LFA-1, range(5-5)
[3] = target: T2, Intercellular adhesion molecule (ICAM-1), Integrin alpha-L/beta-2 (Homo sapiens, UniProt P05107+P20701); experiment: Inhibition of LFA-1 mediated JY-8 cell adhesion to ICAM-1, range(3-10); type: functional, cell-based
T2 sequence (P05362 whole entry, one chain of several, further chain): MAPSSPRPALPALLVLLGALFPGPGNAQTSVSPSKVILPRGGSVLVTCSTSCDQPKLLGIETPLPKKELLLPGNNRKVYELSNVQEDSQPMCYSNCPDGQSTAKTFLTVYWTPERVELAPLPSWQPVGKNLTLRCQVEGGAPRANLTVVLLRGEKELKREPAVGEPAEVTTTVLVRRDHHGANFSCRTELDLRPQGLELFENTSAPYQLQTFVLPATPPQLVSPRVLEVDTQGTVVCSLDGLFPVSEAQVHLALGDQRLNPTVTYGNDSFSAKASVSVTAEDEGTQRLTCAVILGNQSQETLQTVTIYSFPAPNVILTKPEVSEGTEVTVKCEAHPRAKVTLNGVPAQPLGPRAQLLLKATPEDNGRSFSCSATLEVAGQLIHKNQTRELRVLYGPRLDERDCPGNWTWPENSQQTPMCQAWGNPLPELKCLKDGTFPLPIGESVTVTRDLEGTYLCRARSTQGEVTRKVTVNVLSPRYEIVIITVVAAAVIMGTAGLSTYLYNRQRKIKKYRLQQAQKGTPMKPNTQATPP
T2 sequence (P05107 whole entry, one chain of several): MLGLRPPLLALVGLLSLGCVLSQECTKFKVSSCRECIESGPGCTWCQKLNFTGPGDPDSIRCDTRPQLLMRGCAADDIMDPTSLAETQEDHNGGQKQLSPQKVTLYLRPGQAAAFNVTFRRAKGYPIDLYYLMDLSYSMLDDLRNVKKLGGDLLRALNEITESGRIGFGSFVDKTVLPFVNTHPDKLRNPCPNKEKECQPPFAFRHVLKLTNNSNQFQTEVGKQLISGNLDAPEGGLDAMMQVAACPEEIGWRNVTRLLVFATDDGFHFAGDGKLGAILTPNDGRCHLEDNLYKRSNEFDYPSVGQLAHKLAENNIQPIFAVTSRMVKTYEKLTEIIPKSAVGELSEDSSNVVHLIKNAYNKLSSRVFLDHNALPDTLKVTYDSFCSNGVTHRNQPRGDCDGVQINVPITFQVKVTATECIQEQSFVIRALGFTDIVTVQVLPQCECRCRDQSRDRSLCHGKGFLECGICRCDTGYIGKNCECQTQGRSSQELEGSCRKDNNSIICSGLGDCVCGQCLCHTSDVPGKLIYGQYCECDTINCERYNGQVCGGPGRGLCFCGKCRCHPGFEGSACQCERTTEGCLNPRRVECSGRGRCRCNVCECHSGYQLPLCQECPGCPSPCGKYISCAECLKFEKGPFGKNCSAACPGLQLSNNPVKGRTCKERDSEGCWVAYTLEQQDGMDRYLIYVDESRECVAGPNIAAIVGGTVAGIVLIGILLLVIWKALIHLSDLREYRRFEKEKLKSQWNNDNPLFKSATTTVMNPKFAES

Integrin alpha-L [4] = target: T1, Integrin alpha-L; experiment: Inhibition of intercellular adhesion molecule-1 (ICAM-1) binding to recombinant LFA-1, range(100-110)
Integrin alpha-L [5] = target: T1, Integrin alpha-L; experiment: Inhibition of intercellular adhesion molecule-1 (ICAM-1) binding to recombinant LFA-1, range(40-60)
Integrin alpha-L [6] = target: T1, Integrin alpha-L; experiment: Inhibition of intercellular adhesion molecule-1 (ICAM-1) binding to recombinant LFA-1, range (4-7)
[7] = target: T2, Intercellular adhesion molecule (ICAM-1), Integrin alpha-L/beta-2; experiment: Inhibition of LFA-1 mediated JY-8 cell adhesion to ICAM-1, range (2-2); type: functional, cell-based
Integrin alpha-L [8] = target: T1, Integrin alpha-L
[9] = target: T2, Intercellular adhesion molecule (ICAM-1), Integrin alpha-L/beta-2
Integrin alpha-L [10] = target: T1, Integrin alpha-L; remark: listed apart in the source
Integrin alpha-L [11] = target: T1, Integrin alpha-L; experiment: Inhibition of intercellular adhesion molecule-1 (ICAM-1) binding to recombinant LFA-1, range (6-9)
[12] = target: T2, Intercellular adhesion molecule (ICAM-1), Integrin alpha-L/beta-2; experiment: Inhibition of LFA-1 mediated JY-8 cell adhesion to ICAM-1, range (2-9); type: functional, cell-based
Integrin alpha-L [13] = target: T1, Integrin alpha-L; experiment: Inhibition of intercellular adhesion molecule-1 (ICAM-1) binding to recombinant LFA-1, range (6-12)
[14] = target: T2, Intercellular adhesion molecule (ICAM-1), Integrin alpha-L/beta-2; experiment: Inhibition of LFA-1 mediated JY-8 cell adhesion to ICAM-1, range (2-30); type: functional, cell-based
Integrin alpha-L [15] = target: T1, Integrin alpha-L; experiment: Inhibition of intercellular adhesion molecule-1 (ICAM-1) binding to recombinant LFA-1
Integrin alpha-L [16] = target: T1, Integrin alpha-L; experiment: Inhibition of intercellular adhesion molecule-1 (ICAM-1) binding to recombinant LFA-1, range (6-19)
[17] = target: T2, Intercellular adhesion molecule (ICAM-1), Integrin alpha-L/beta-2; experiment: Inhibition of LFA-1 mediated JY-8 cell adhesion to ICAM-1, range (3-18); type: functional, cell-based
Mus musculus [18] = experiment: Inhibition of allergen induced neutrophil influx in mouse lung at 1 mg/kg; type: functional
Mus musculus [19] = experiment: Inhibition of allergen induced neutrophil influx in mouse lung at 10 mg/kg; type: functional
Mus musculus [20] = experiment: Inhibition of allergen induced neutrophil influx in mouse lung at 3 mg/kg; type: functional
Mus musculus [21] = experiment: Inhibition of allergen induced total cell influx in mouse lung at 1 mg/kg; type: functional
Mus musculus [22] = experiment: Inhibition of allergen induced total cell influx in mouse lung at 10 mg/kg; type: functional
Mus musculus [23] = experiment: Inhibition of allergen induced total cell influx in mouse lung at 3 mg/kg; type: functional
Integrin alpha-L [24] = target: T1, Integrin alpha-L; remark: listed apart in the source
[25] = target: T2, Intercellular adhesion molecule (ICAM-1), Integrin alpha-L/beta-2; remark: listed apart in the source
[26] = target: T3, Intercellular adhesion molecule (ICAM-1), Integrin alpha-L/beta-2 (Homo sapiens) (UniProt P20701+P05362+P05107); details: Rattus norvegicus
[27] = target: T3, Intercellular adhesion molecule (ICAM-1), Integrin alpha-L/beta-2 (Homo sapiens); details: Rattus norvegicus; remark: listed apart in the source
Integrin alpha-L [28] = target: T1, Integrin alpha-L; experiment: Inhibition of intercellular adhesion molecule-1 (ICAM-1) binding to recombinant LFA-1, range(760-2620)
Integrin alpha-L [29] = target: T1, Integrin alpha-L; experiment: Inhibition of intercellular adhesion molecule-1 (ICAM-1) binding to recombinant LFA-1, range(30-60)
[30] = target: T2, Intercellular adhesion molecule (ICAM-1), Integrin alpha-L/beta-2; experiment: Inhibition of LFA-1 mediated JY-8 cell adhesion to ICAM-1, range (30-150); type: functional, cell-based

Structure (SMILES): CC(=O)N1CCN(C(=O)/C=C/c2ccc(Sc3cccc(Cl)c3Cl)c(S(=O)(=O)N(C)C)c2)CC1
- IC50 (Integrin alpha-L [1]): 3750 nM

Structure (SMILES): Cn1ccc2cc(Sc3ccc(/C=C/C(=O)N4CCC(C(=O)O)CC4)c(C(F)(F)F)c3C(F)(F)F)ccc21
- IC50 (Integrin alpha-L [2]): 5 nM
- IC50 [3]: 5 nM

Structure (SMILES): CC(=O)N1CCN(C(=O)/C=C/c2ccc(Sc3cccc(Cl)c3Cl)c([N+](=O)[O-])c2)CC1
- IC50 (Integrin alpha-L [4]): 105 nM

Structure (SMILES): O=C(O)C1CCN(C(=O)/C=C/c2ccc(Sc3ccc4c(c3)OCCO4)c(C(F)(F)F)c2)CC1
- IC50 (Integrin alpha-L [5]): 50 nM

Structure (SMILES): O=C(O)C1CCN(C(=O)/C=C/c2ccc(Sc3ccc4c(c3)OCCO4)c(Cl)c2C(F)(F)F)CC1
- IC50 (Integrin alpha-L [6]): 5 nM
- IC50 [7]: 2 nM

Structure (SMILES): O=C(O)C1CCN(C(=O)/C=C/c2ccc(Sc3ccc4c(c3)OCCO4)c(C(F)(F)F)c2C(F)(F)F)CC1
- IC50 (Integrin alpha-L [8]): 3 nM
- IC50 [9]: 0.5 nM

Structure (SMILES): CC(C)c1ccccc1SC1=CC=C(/C=C/C(=O)N2CCC(C(=O)O)CC2)C(F)C1F (stereo not drawn)
- IC50 (Integrin alpha-L [10]): 115 nM

Structure (SMILES): O=C(O)C1CCN(C(=O)/C=C/c2ccc(Sc3ccc4c(c3)OCCO4)c(Cl)c2Cl)CC1
- IC50 (Integrin alpha-L [11]): 7 nM
- IC50 [12]: 6 nM

Structure (SMILES): COc1ccccc1Sc1ccc(/C=C/C(=O)N2CCC(C(=O)O)CC2)c(Cl)c1Cl
- IC50 (Integrin alpha-L [13]): 8 nM
- IC50 [14]: 8 nM

Structure (SMILES): COc1ccccc1Sc1cc(C)c(/C=C/C(=O)N2CCC(C(=O)O)CC2)cc1Cl
- IC50 (Integrin alpha-L [15]): > 20000 nM

Structure (SMILES): CC(C)c1ccccc1Sc1ccc(/C=C/C(=O)N2CCC(C(=O)O)CC2)c(Cl)c1Cl
- IC50 (Integrin alpha-L [16]): 10 nM
- IC50 [17]: 6 nM

Structure (SMILES): Cn1ccc2cc(Sc3ccc(/C=C/C(=O)N4CCC(C(=O)O)CC4)c(Cl)c3Cl)ccc21
- Neutrophils (Mus musculus [18]): 36%
- Neutrophils (Mus musculus [19]): 30%
- Neutrophils (Mus musculus [20]): 31%
- Total cells (Mus musculus [21]): 291 number ul-1
- Total cells (Mus musculus [22]): 189 number ul-1
- Total cells (Mus musculus [23]): 147 number ul-1
- IC50 (Integrin alpha-L [24]): 6 nM
- IC50 [25]: 4 nM
- Polymorphonuclear cells [26]: 7.48
- Polymorphonuclear cells [27]: 4.88

Structure (SMILES): COc1ccccc1Sc1ccc(/C=C/C(=O)N2CCC(C(=O)O)CC2)c(Cl)c1
- IC50 (Integrin alpha-L [28]): 1400 nM

Structure (SMILES): O=C(O)C1CCN(C(=O)/C=C/c2cc(Cl)c(Sc3ccc4c(c3)OCCO4)c(C(F)(F)F)c2)CC1
- IC50 (Integrin alpha-L [15]): > 20000 nM

Structure (SMILES): COc1ccccc1Sc1ccc(/C=C/C(=O)N2CCC(C(=O)O)CC2)c(C)c1
- IC50 (Integrin alpha-L [15]): > 20000 nM

Structure (SMILES): CC(=O)N1CCN(C(=O)/C=C/c2ccc(Sc3ccc4c(c3)OCCO4)c(Cl)c2)CC1
- IC50 (Integrin alpha-L [29]): 40 nM
- IC50 [30]: 80 nM

Structure (SMILES): O=C(/C=C/c1ccc(Sc2cccc(Cl)c2Cl)cc1)N1CCOCC1
- IC50 (Integrin alpha-L [15]): 9100 nM
